Test results reported in patent publication US10815222B2, “Compounds for use in the treatment of kinetoplastid infection” (C.N.C.C.S. S.c.a.r.l. COLLEZIONE NAZIONALE DEI COMPOSTI …, priority 2016, dated 2020).

These compounds were tested on Bloodstream form of Trypanosoma brucei, strain Lister 427 (assay: Trypanosoma brucei growth inhibition assay (CellTiter-Glo, 24 h)). Details: Trypanosoma brucei; T. Brucei Growth Inibition Assay, class symbols; read-out: T. Brucei GI EC50.
Assay type: cell-based
Summary of the method: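 Growth read-out was CellTiter-Glo luminescence after 24 h at 37 °C incubation of 1500 bloodstream-form Lister 427 trypanosomes per well with compound, in supplemented IMDM containing 10% FBS and at most 0.25% DMSO.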

Compared with COc1ccc2nc(C(F)(F)F)n(CC(=O)N3CCS(=O)(=O)CC3c3ncc(-c4cc5ccccc5nc4OC)[nH]3)c2c1 (stereo not drawn) [2-(6-methoxy-2-(trifluoromethyl)-1H-benzo[d]imidazol-1-yl)-1-(3-(5-(2-methoxyquinolin-3-yl)-1H-imidazol-2-yl)-1,1-dioxidothiomorpholino)ethan-1-one], COc1ccc2nc(C(F)(F)F)n(CC(=O)N3CC[C@H](N[C@@H]4CCOC4)C[C@H]3c3ncc(-c4cc5ccccc5nc4OC)[nH]3)c2c1 [2-(6-methoxy-2-(trifluoromethyl)-1H-benzo[d]imidazol-1-yl)-1-((2S,4S)-2-(5-(2-methoxyquinolin-3-yl)-1H-imidazol-2-yl)-4-(((R)-tetrahydrofuran-3-yl)amino)piperidin-1-yl)ethan-1-one] is lower in EC50: 100 to 500 nM for the first, < 100 nM for the second.

First: COc1ccc2nc(C(F)(F)F)n(CC(=O)N3CCN(CCc4ccnn4C)CCC3c3ncc(-c4cc5ccccc5nc4OC)[nH]3)c2c1 (stereo not drawn) [2-(6-methoxy-2-(trifluoromethyl)-1H-benzo[d]imidazol-1-yl)-1-(7-(5-(2-methoxyquinolin-3-yl)-1H-imidazol-2-yl)-4-(2-(1-methyl-1H-pyrazol-5-yl)ethyl)-1,4-diazepan-1-yl)ethan-1-one]
Second: COc1ccc2nc(C(F)(F)F)n(CC(=O)N3CCN(CCc4ccccn4)CCC3c3ncc(-c4cc5ccccc5nc4OC)[nH]3)c2c1 (stereo not drawn) [2-(6-methoxy-2-(trifluoromethyl)-1H-benzo[d]imidazol-1-yl)-1-(7-(5-(2-methoxyquinolin-3-yl)-1H-imidazol-2-yl)-4-(2-(pyridin-2-yl)ethyl)-1,4-diazepan-1-yl)-ethan-1-one]
The EC50 of the first is lower: < 100 nM for the first, 100 to 500 nM for the second. The first is the more potent here.

COc1ccc2nc(C(F)(F)F)n(CC(=O)N3CCN(Cc4ccn(C)n4)CCC3c3ncc(-c4cc5ccccc5nc4OC)[nH]3)c2c1 (stereo not drawn) [2-(6-methoxy-2-(trifluoromethyl)-1H-benzo[d]imidazol-1-yl)-1-(7-(5-(2-methoxyquinolin-3-yl)-1H-imidazol-2-yl)-4-((1-methyl-1H-pyrazol-3-yl)methyl)-1,4-diazepan-1-yl)ethan-1-one] and COc1ccc2nc(C(F)(F)F)n(CC(=O)N3CCN(Cc4cocn4)CCC3c3ncc(-c4cc5ccccc5nc4OC)[nH]3)c2c1 (stereo not drawn) [2-(6-methoxy-2-(trifluoromethyl)-1H-benzo[d]imidazol-1-yl)-1-(7-(5-(2-methoxyquinolin-3-yl)-1H-imidazol-2-yl)-4-(oxazol-4-ylmethyl)-1,4-diazepan-1-yl)ethan-1-one] cannot be ordered by EC50: < 100 nM for the first, < 100 nM for the second.

COc1ccc2nc(C(F)(F)F)n(CC(=O)N3CCN(CC4CCOC4)CCC3c3ncc(-c4cc5ccccc5nc4OC)[nH]3)c2c1 (stereo not drawn) [2-(6-methoxy-2-(trifluoromethyl)-1H-benzo[d]imidazol-1-yl)-1-(7-(5-(2-methoxyquinolin-3-yl)-1H-imidazol-2-yl)-4-((tetrahydrofuran-3-yl)methyl)-1,4-diazepan-1-yl)ethan-1-one] and COc1ccc2nc(C(F)(F)F)n(CC(=O)N3CCN(CC4CCOC4)C[C@H]3c3ncc(-c4cc5ccccc5nc4OC)[nH]3)c2c1 (stereo partly drawn) [2-(6-methoxy-2-(trifluoromethyl)-1H-benzo[d]imidazol-1-yl)-1-((2S)-2-(5-(2-methoxyquinolin-3-yl)-1H-imidazol-2-yl)-4-((tetrahydrofuran-3-yl)methyl)piperazin-1-yl)ethan-1-one] cannot be ordered by EC50: < 100 nM for the first, < 100 nM for the second.

COc1ccc2nc(C(F)(F)F)n(CC(=O)N3CCN(Cc4ncco4)CCC3c3ncc(-c4cc5ccccc5nc4OC)[nH]3)c2c1 (stereo not drawn) [2-(6-methoxy-2-(trifluoromethyl)-1H-benzo[d]imidazol-1-yl)-1-(7-(5-(2-methoxyquinolin-3-yl)-1H-imidazol-2-yl)-4-(oxazol-2-ylmethyl)-1,4-diazepan-1-yl)ethan-1-one] and COc1ccc2nc(C(F)(F)F)n(CC(=O)N3CCN(Cc4nccs4)CCC3c3ncc(-c4cc5ccccc5nc4OC)[nH]3)c2c1 (stereo not drawn) [2-(6-methoxy-2-(trifluoromethyl)-1H-benzo[d]imidazol-1-yl)-1-(7-(5-(2-methoxyquinolin-3-yl)-1H-imidazol-2-yl)-4-(thiazol-2-ylmethyl)-1,4-diazepan-1-yl)ethan-1-one] cannot be ordered by EC50: < 100 nM for the first, < 100 nM for the second.

COc1ccc2nc(C(F)(F)F)n(CC(=O)N3CCN(Cc4cnccn4)CCC3c3ncc(-c4cc5ccccc5nc4OC)[nH]3)c2c1 (stereo not drawn) [2-(6-methoxy-2-(trifluoromethyl)-1H-benzo[d]imidazol-1-yl)-1-(7-(5-(2-methoxyquinolin-3-yl)-1H-imidazol-2-yl)-4-(pyrazin-2-ylmethyl)-1,4-diazepan-1-yl)ethan-1-one] and COc1ccc2nc(C(F)(F)F)n(CC(=O)N3CCN(Cc4ccccn4)CCC3c3ncc(-c4cc5ccccc5nc4OC)[nH]3)c2c1 (stereo not drawn) [2-(6-methoxy-2-(trifluoromethyl)-1H-benzo[d]imidazol-1-yl)-1-(7-(5-(2-methoxyquinolin-3-yl)-1H-imidazol-2-yl)-4-(pyridin-2-ylmethyl)-1,4-diazepan-1-yl)ethan-1-one] cannot be ordered by EC50: < 100 nM for the first, < 100 nM for the second.

COc1ccc2nc(C(F)(F)F)n(CC(=O)N3CCN(C4CCOCC4)CCC3c3ncc(-c4cc5ccccc5nc4OC)[nH]3)c2c1 (stereo not drawn) [2-(6-methoxy-2-(trifluoromethyl)-1H-benzo[d]imidazol-1-yl)-1-(7-(5-(2-methoxyquinolin-3-yl)-1H-imidazol-2-yl)-4-(tetrahydro-2H-pyran-4-yl)-1,4-diazepan-1-yl)ethan-1-one] and COc1ccc2nc(C(F)(F)F)n(CC(=O)N3CCN(C4CCOC4)CCC3c3ncc(-c4cc5ccccc5nc4OC)[nH]3)c2c1 (stereo not drawn) [2-(6-methoxy-2-(trifluoromethyl)-1H-benzo[d]imidazol-1-yl)-1-(7-(5-(2-methoxyquinolin-3-yl)-1H-imidazol-2-yl)-4-(tetrahydrofuran-3-yl)-1,4-diazepan-1-yl)ethan-1-one] cannot be ordered by EC50: < 100 nM for the first, < 100 nM for the second.

COc1ccc2nc(C(F)(F)F)n(CC(=O)N3CCN(Cc4cscn4)CCC3c3ncc(-c4cc5ccccc5nc4OC)[nH]3)c2c1 (stereo not drawn) [2-(6-methoxy-2-(trifluoromethyl)-1H-benzo[d]imidazol-1-yl)-1-(7-(5-(2-methoxyquinolin-3-yl)-1H-imidazol-2-yl)-4-(thiazol-4-ylmethyl)-1,4-diazepan-1-yl)ethan-1-one] and COc1ccc2nc(C(F)(F)F)n(CC(=O)N3CC[C@H](NCc4ccn(C)n4)C[C@H]3c3ncc(-c4cc5ccccc5nc4OC)[nH]3)c2c1 [2-(6-methoxy-2-(trifluoromethyl)-1H-benzo[d]imidazol-1-yl)-1-((2S,4S)-2-(5-(2-methoxyquinolin-3-yl)-1H-imidazol-2-yl)-4-(((1-methyl-1H-pyrazol-3-yl)methyl)amino)piperidin-1-yl)ethan-1-one] cannot be ordered by EC50: < 100 nM for the first, < 100 nM for the second.

First: COc1ccc2nc(C(F)(F)F)n(CC(=O)N3CCN(CC4CCOC4)C[C@H]3c3noc(-c4cc5ccccc5nc4OC)n3)c2c1 (stereo partly drawn) [2-(6-methoxy-2-(trifluoromethyl)-1H-benzo[d]imidazol-1-yl)-1-((2S)-2-(5-(2-methoxyquinolin-3-yl)-1,2,4-oxadiazol-3-yl)-4-((tetrahydrofuran-3-yl)methyl)piperazin-1-yl)ethan-1-one]
Second: COc1ccc2nc(C(F)(F)F)n(CC(=O)N3CCN(CC4CCOC4)C[C@H]3c3nnc(-c4cc5ccccc5nc4OC)[nH]3)c2c1 (stereo partly drawn) [2-(6-methoxy-2-(trifluoromethyl)-1H-benzo[d]imidazol-1-yl)-1-((2S)-2-(5-(2-methoxyquinolin-3-yl)-4H-1,2,4-triazol-3-yl)-4-((tetrahydrofuran-3-yl)methyl)piperazin-1-yl)ethan-1-one]
The EC50 of the first is higher: 1010 to 5000 nM for the first, < 100 nM for the second. The second is the more potent here.

COc1ccc2nc(C(F)(F)F)n(CC(=O)N3CCC(N(C)Cc4cnccn4)C[C@H]3c3ncc(-c4cc5ccccc5nc4OC)[nH]3)c2c1 (stereo partly drawn) [2-(6-methoxy-2-(trifluoromethyl)-1H-benzo[d]imidazol-1-yl)-1-((2S)-2-(5-(2-methoxyquinolin-3-yl)-1H-imidazol-2-yl)-4-(methyl(pyrazin-2-ylmethyl)amino)piperidin-1-yl)ethan-1-one] and COc1ccc2nc(C(F)(F)F)n(CC(=O)N3CC[C@@H](N(C)Cc4ccn(C)n4)C[C@H]3c3ncc(-c4cc5ccccc5nc4OC)[nH]3)c2c1 [2-(6-methoxy-2-(trifluoromethyl)-1H-benzo[d]imidazol-1-yl)-1-((2S,4R)-2-(5-(2-methoxyquinolin-3-yl)-1H-imidazol-2-yl)-4-(methyl((1-methyl-1H-pyrazol-3-yl)methyl)amino)piperidin-1-yl)ethan-1-one] cannot be ordered by EC50: < 100 nM for the first, < 100 nM for the second.

COc1ccc2nc(C(F)(F)F)n(CC(=O)N3CC[C@H](NCc4cncn4C)C[C@H]3c3ncc(-c4cc5ccccc5nc4OC)[nH]3)c2c1 [2-(6-methoxy-2-(trifluoromethyl)-1H-benzo[d]imidazol-1-yl)-1-((2S,4S)-2-(5-(2-methoxyquinolin-3-yl)-1H-imidazol-2-yl)-4-(((1-methyl-1H-imidazol-5-yl)methyl)amino)piperidin-1-yl)ethan-1-one] and COc1ccc2nc(C(F)(F)F)n(CC(=O)N3CC[C@H](NCC4COC4)C[C@H]3c3ncc(-c4cc5ccccc5nc4OC)[nH]3)c2c1 [2-(6-methoxy-2-(trifluoromethyl)-1H-benzo[d]imidazol-1-yl)-1-((2S,4S)-2-(5-(2-methoxyquinolin-3-yl)-1H-imidazol-2-yl)-4-((oxetan-3-ylmethyl)amino)piperidin-1-yl)ethan-1-one] cannot be ordered by EC50: < 100 nM for the first, < 100 nM for the second.

COc1ccc2nc(C(F)(F)F)n(CC(=O)N3CC[C@H](N[C@H]4CCOC4)C[C@H]3c3ncc(-c4cc5ccccc5nc4OC)[nH]3)c2c1 [2-(6-methoxy-2-(trifluoromethyl)-1H-benzo[d]imidazol-1-yl)-1-((2S,4S)-2-(5-(2-methoxyquinolin-3-yl)-1H-imidazol-2-yl)-4-(((S)-tetrahydrofuran-3-yl)amino)piperidin-1-yl)ethan-1-one] and COc1ccc2nc(C(F)(F)F)n(CC(=O)N3CC[C@H](NCC4CCOC4)C[C@H]3c3ncc(-c4cc5ccccc5nc4OC)[nH]3)c2c1 (stereo partly drawn) [2-(6-methoxy-2-(trifluoromethyl)-1H-benzo[d]imidazol-1-yl)-1-((2S,4S)-2-(5-(2-methoxyquinolin-3-yl)-1H-imidazol-2-yl)-4-(((tetrahydrofuran-3-yl)methyl)amino)piperidin-1-yl)ethan-1-one] cannot be ordered by EC50: < 100 nM for the first, < 100 nM for the second.
